According to patent US10738028B2, “Spiro three-membered ring, spiro five-membered ring peptide deformylase inhibitor and use thereof in antibacteria and anti-tumor” (priority 2016, dated 2020):

What was measured:
Format in all cases: cell-based
[1] = tested on: HCT-116 colorectal cancer cell line; experiment: CCK-8 proliferation inhibition; details: 72 hours, CCK-8
Method in brief: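 HCT-116 cells, seeded at 2000 cells/well in McCoy's 5A with 10% newborn bovine serum, were cultured overnight at 37° C., 5% CO2, then exposed to compound dilutions in medium for 72 hours. Viability was read with 1:10 diluted CCK-8; controls received 1‰ DMSO.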

[2] = tested on: BEL-7402 liver cancer cell line; experiment: CCK-8 proliferation inhibition
Method in brief: (§1)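 Plating at 2000 cells/well, then incubation overnight at 37° C. Next, a range of compound concentrations for 72 hours (control 1‰ DMSO). Finally, medium decanted and CCK-8 diluted 1:10 added.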

[3] = tested on: A549 lung cancer cell line; experiment: CCK-8 proliferation inhibition
Method in brief: as §1

[4] = tested on: MGC-803 gastric cancer cell line; experiment: CCK-8 proliferation inhibition
Method in brief: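 Cells were seeded at 2000 cells/well and cultured overnight at 37° C, 5% CO2, then exposed for 72 hours to compounds diluted from DMSO stocks. Controls received 1‰ DMSO. CCK-8 (1:10 diluted) replaced the medium. MGC-803 and Jurkat were grown in 1640, PC3 in F12, and MCF-7 in DMEM high glucose, each with 10% newborn bovine serum.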

[5] = tested on: Streptococcus pneoumoniae (SPN); experiment: MIC, two-fold agar dilution (CLSI), clinical isolates
Method in brief: (§2)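 CLSI two-fold agar dilution; MIC of test samples read per tested strain.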

[6] = tested on: methicillin-sensitive Staphylococcus epidermidis (MSSE); experiment: as above
Method in brief: as §2

[7] = tested on: Escherichia coli (including ESBLs, non-ESBLs); experiment: as above
Method in brief: as §2

[8] = tested on: methicillin-resistant Staphylococcus epidermidis (MRSE); experiment: as above
Method in brief: as §2

[9] = tested on: methicillin-resistant Staphylococcus aureus (MRSA); experiment: as above
Method in brief: as §2

[10] = tested on: methicillin-sensitive Staphylococcus aureus (MSSA); experiment: as above
Method in brief: as §2

[11] = tested on: Enterococcus faecium (EFM); experiment: as above
Method in brief: as §2

[12] = tested on: Enterococcus faecalis (EFA); experiment: as above
Method in brief: as §2

[13] = tested on: Moraxella catarrhalis (BCA); experiment: as above
Method in brief: as §2

[14] = concentration of 30 μM, 72 hours, 30 µM

O=C(C[C@@H](CC1CCCC1)C(=O)N1CC2(CC2)C[C@@H]1c1nc2ccccc2[nH]1)NO [Example 76, (R)-4-((R)-6-(1H-benzimidazol-2-yl)-5-azaspiro[2.4]heptane-5-yl)-3-(cyclopentylmethyl)-N-hydroxy-4-oxobutanamide]
2 µg/mL: Anti-bacterial activity (MIC) ([13]; strain BCA 14-1)
67%: Inhibition of proliferation, Liver cancer BEL-7402 [2, 14]
9.29 µM: IC50 ([3]; Homo sapiens, A549, 72 hours)
8.58 µM: IC50 ([2]; Homo sapiens, Bel-7402, 72 hours)
64%: Inhibition of proliferation, Gastric cancer MGC-803 [4, 14]
8 µg/mL: Anti-bacterial activity (MIC) ([5]; strain SPN 16-2)
32 µg/mL: Anti-bacterial activity (MIC) ([11]; strain EFM 15-6)
94%: Inhibition of proliferation, Lung cancer A549 [3, 14]
87%: HCT116 inhibition rate/% ([1]; concentration of 30 μM, 30 µM)
16.6 µM: IC50 ([4]; Homo sapiens, MGC-803, 72 hours)
4 µg/mL: Anti-bacterial activity (MIC) ([5]; strain SPN 16-4)
10.8 µM: IC50 ([1]; Homo sapiens, HCT-116)
> 32 µg/mL: Anti-bacterial activity (MIC), strain MSSE 15-3 ([6]; clinical isolate MSSE 15-3) | Anti-bacterial activity (MIC), strain MSSE 15-4 ([6]; clinical isolate MSSE 15-4) | Anti-bacterial activity (MIC), strain MSSE 15-5 ([6]; clinical isolate MSSE 15-5) | Anti-bacterial activity (MIC), strain MSSE 15-6 ([6]; clinical isolate MSSE 15-6) | Anti-bacterial activity (MIC), strain ECO+ 15-1 ([7]; clinical isolate ECO+ 15-1) | Anti-bacterial activity (MIC), strain ECO+ 15-2 ([7]; clinical isolate ECO+ 15-2) | Anti-bacterial activity (MIC), strain ECO+ 15-3 ([7]; clinical isolate ECO+ 15-3) | Anti-bacterial activity (MIC), strain ECO+ 15-4 ([7]; clinical isolate ECO+ 15-4) | Anti-bacterial activity (MIC), strain ECO− 15-1 ([7]; clinical isolate ECO− 15-1) | Anti-bacterial activity (MIC), strain ECO− 15-2 ([7]; clinical isolate ECO− 15-2) | Anti-bacterial activity (MIC), strain ECO− 15-3 ([7]; clinical isolate ECO− 15-3) | Anti-bacterial activity (MIC), strain ECO− 15-4 ([7]; clinical isolate ECO− 15-4) | Anti-bacterial activity (MIC), strain MRSE 15-1 ([8]; clinical isolate MRSE 15-1) | Anti-bacterial activity (MIC), strain MRSE 15-2 ([8]; clinical isolate MRSE 15-2) | Anti-bacterial activity (MIC), strain MRSE 15-3 ([8]; clinical isolate MRSE 15-3) | Anti-bacterial activity (MIC), strain MRSE 15-7 ([8]; clinical isolate MRSE 15-7) | Anti-bacterial activity (MIC), strain MRSA 15-1 ([9]; clinical isolate MRSA 15-1) | Anti-bacterial activity (MIC), strain MRSA 15-2 ([9]; clinical isolate MRSA 15-2) | Anti-bacterial activity (MIC), strain MRSA 15-3 ([9]; clinical isolate MRSA 15-3) | Anti-bacterial activity (MIC), strain MRSA 15-4 ([9]; clinical isolate MRSA 15-4) | Anti-bacterial activity (MIC), strain MSSA 15-3 ([10]; clinical isolate MSSA 15-3) | Anti-bacterial activity (MIC), strain MSSA 15-4 ([10]; clinical isolate MSSA 15-4) | Anti-bacterial activity (MIC), strain MSSA 15-5 ([10]; clinical isolate MSSA 15-5) | Anti-bacterial activity (MIC), strain MSSA 15-6 ([10]; clinical isolate MSSA 15-6) | Anti-bacterial activity (MIC) ([11]; strain EFM 15-1) | Anti-bacterial activity (MIC) ([11]; strain EFM 15-2) | Anti-bacterial activity (MIC) ([11]; strain EFM 15-3) | Anti-bacterial activity (MIC) ([12]; strain EFA 15-1) | Anti-bacterial activity (MIC) ([12]; strain EFA 15-2) | Anti-bacterial activity (MIC) ([12]; strain EFA 15-3) | Anti-bacterial activity (MIC) ([12]; strain EFA 15-4) | Anti-bacterial activity (MIC) ([12]; strain EFA 15-5) | Anti-bacterial activity (MIC) ([12]; strain EFA 15-6) | Anti-bacterial activity (MIC) ([12]; strain EFA 15-9) | Anti-bacterial activity (MIC) ([13]; strain BCA 14-4) | Anti-bacterial activity (MIC) ([13]; strain BCA 14-5) | Anti-bacterial activity (MIC) ([13]; strain BCA 14-6) | Anti-bacterial activity (MIC) ([13]; strain BCA 14-7) | Anti-bacterial activity (MIC) ([13]; strain BCA 14-8) | Anti-bacterial activity (MIC) ([13]; strain BCA 14-10)
16 µg/mL: Anti-bacterial activity (MIC) ([11]; strain EFM 15-4) | Anti-bacterial activity (MIC) ([11]; strain EFM 15-5)
> 50%: inhibition at 30 µM ([2]; Homo sapiens, Bel-7402, 72 h, concentration of 30 μM) | inhibition at 30 µM ([4]; Homo sapiens, MGC-803, 72 h, concentration of 30 μM)
